Reference: patent US10149818B2 (UCB PHARMA GMBH, priority 2010, dated 2018)
In brackets after ≈: the same amount, converted by molar mass.

Key:
[1] = tested on: subjects with partial-onset seizures; experiment: PK-PD modeling of seizure frequency, Emax model, pooled clinical trials (Example 54); assay type: in vivo, human
Text: Objectives of the PK-PD analysis were to evaluate and describe the correlation between the LCM plasma concentration over time (PK parameter) and the reduction of daily seizures over time (PD parameter) based on the pooled data from the previous clinical human trials.
The evaluation of PK-PD modeling was done based on the Emax model.
The following Table 8 summarizes the PK-PD modeling results using the Emax model.
The slope of the linear regression is equal to the mean daily number of seizures.
Based on the relative difference of the individual slopes during Titration and Maintenance Phase vs Baseline slope and the approximated AUCT,ss,m, the PK-PD evaluation was performed using a linear model, the Emax model, and the Emax 100 model. […] Finally, the Emax model had the lowest weighted sum of squares and was therefore selected as the most appropriate PK-PD model to describe the data. […] The AUC50 is defined as the AUC[…],ss that is needed in individuals to achieve 50% of the maximum effect (decrease in seizure frequency).

[2] = IR tablets twice daily; average distribution volume of 50 liters; cited from earlier work

SMILES: COC[C@@H](NC(C)=O)C(=O)NCc1ccccc1 [lacosamide, (R)-2-Acetamido-N-benzyl-3-methoxypropionamide]
- decrease in partial seizure frequency at AUC50 ([1]; 50% of the maximum effect): 35%
- decrease of seizures as % of the maximum effect ([1]; AUC of 67 μg/mL*h (mean dose 200 mg LCM bid in a typical subject)): 65%
- AUC,tau,ss corresponding to kd ([1]; Emax model): 35 µg·h/mL
- EC50 ([1]; Homo sapiens, Emax model, plasma concentration, read-out: kd, concentration for half of the maximum effect): 2.92 µg/mL (≈ 11.7 µM)
- decrease of seizures as % of the maximum effect ([1]; human, in vivo): 74%
- maximum dosage-normalized lacosamide steady state plasma levels (Cmax, ss, norm) [2]: 40 to 43 ng/mL/mg
